# Assay results reported in patent publication EP0596406B1, “Imidazo (1,2-a) Pyridines as bradykinin antagonists” (FUJISAWA PHARMACEUTICAL CO., LTD., priority 1992, dated 1994).
# Where a name gives a salt, the structure may show the parent alone.
# Target: T1, Bradykinin receptor (Cavia porcellus, UniProt O70526)
# T1 construct: The ileum was removed and homogenized in buffer; from tissue; host or cells: guinea pig ileum, crude membrane suspension
# T1 sequence (O70526 1-372): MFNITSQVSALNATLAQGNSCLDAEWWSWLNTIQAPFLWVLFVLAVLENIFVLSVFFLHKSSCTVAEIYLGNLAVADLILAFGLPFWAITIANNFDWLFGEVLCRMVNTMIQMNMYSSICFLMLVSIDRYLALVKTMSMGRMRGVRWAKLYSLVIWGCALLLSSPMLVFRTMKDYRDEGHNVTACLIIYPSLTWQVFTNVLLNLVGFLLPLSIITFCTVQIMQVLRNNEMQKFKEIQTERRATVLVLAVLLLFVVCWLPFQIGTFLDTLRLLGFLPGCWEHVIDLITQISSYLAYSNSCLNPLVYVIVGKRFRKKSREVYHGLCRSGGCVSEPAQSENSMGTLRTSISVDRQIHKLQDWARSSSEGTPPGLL
# Assay: ^3H-Bradykinin receptor binding (crude guinea pig ileum membrane)
# Set-up: species or system guinea pigs
# Details: drug 1 x 10^-5M; ^3H-Bradykinin 0.06 nM; crude ileum membrane suspension; room temperature for 60 minutes; 10 µM
# Experimental: (a) Crude ileum membrane preparation
# Male Hartly strain guinea pigs were sacrificed by decapitation. The ileum was removed and homogenized in buffer (50 mM trimethylaminoethanesulfonic acid (TES), 1 mM 1,10-phenanthroline pH 6.8). The homogenate was centrifuged (1000 xg, 20 minutes) to remove tissue clumps and the supernatant was centrifuges (100,000 xg, 60 minutes) to yield a pellet. The pellet was resuspended in buffer (50 mM TES, 1 mM 1,10-phenanthroline, 140 mg/ℓ bacitracin, 1 mM dithiothreiol, 0.1 % bovine serum albumin pH 6.8) and homogenized with a glass-teflon homogenizer to yield suspension which was referred to as crude membrane suspension. The obtained membrane suspension was stored at -80°C until use.
# (b) ^3H-Bradykinin binding to the membrane
# The frozen crude membrane suspension was thawed. In binding assays, ^3H-Bradykinin (0.06 nM) and drug (1 x 10^-5M) were incubated with 50 µl of the membrane suspension at room temperature for 60 minutes in a final volume of 250 µl. Separation of receptor-bound from free ^3H-Bradykinin is achieved by immediate filtration under vacuum and washed three times with 5 ml of ice-cold buffer (50 mM Tris-HCl pH 7.5). Non-specific binding was defined as binding in the presence of 0.1 µM Bradykinin. The radioactivity retained on rinsed filters was determined by a liquid-scintillation counter.
row,Compound,Inhibition % of ^3H-Bradykinin binding (concentration : 1 x 10^-5M) [%]
1,"CCCNC(=O)NCC(=O)N(C)c1ccc(Cl)c(COc2cccn3c(Br)c(C)nc23)c1Cl.Cl [61-(51), 3-Bromo-8-[2,6-dichloro-3-[N-(N'-n-propylureidoacetyl)-N-methylamino]benzyloxy]-2-methylimidazo[1,2-a]pyridine hydrochloride]",100
2,"Cc1nc2c(OCc3c(Cl)ccc(N(C)C(=O)CNC(=O)Nc4cccnc4)c3Cl)cccn2c1Br.Cl.Cl [61-(54), 3-Bromo-8-[2,6-dichloro-3-[N-[N'-(3-pyridyl)ureidoacetyl]-N-methylamino]benzyloxy]-2-methylimidazo[1,2-a]pyridine dihydrochloride]",100

# Same assay, conditions: drug 1 x 10^-5M; ^3H-Bradykinin 0.06 nM; crude ileum membrane suspension; room temperature for 60 minutes; read-out: Inhibition % of ^3H-Bradykinin binding (concentration : 1 x 10^-5M)
row,Compound,inhibition at 10 µM [%]
1,"CC(=O)N(C)c1ccc(Cl)c(COc2cccn3c(Br)c(C)nc23)c1Cl [61-(1), 3-Bromo-8-[2,6-dichloro-3-(N-acetyl-N-methylamino)benzyloxy]-2-methylimidazo[1,2-a]pyridine hydrochloride]",95
2,"CC(=O)NCC(=O)N(C)c1ccc(Cl)c(COc2cccn3c(Br)c(C)nc23)c1Cl [61-(5), 8-[3-[N-(Acetylglycyl)-N-methylamino]-2,6-dichlorobenzyloxy]-3-bromo-2-methylimidazo[1,2-a]pyridine hydrochloride]",99
3,"CCCC(=O)NCC(=O)N(C)c1ccc(Cl)c(COc2cccn3c(Br)c(C)nc23)c1Cl [61-(7), 3-Bromo-8-[3-[N-(butyrylglycyl)-N-methylamino]-2,6-dichlorobenzyloxy]-2-methylimidazo[1,2-a]pyridine hydrochloride]",100
4,"Cc1nc2c(OCc3c(Cl)ccc(N(C)C(=O)CNC(=O)c4ccccc4)c3Cl)cccn2c1Br [61-(11), 8-[3-[N-(Benzoylglycyl)-N-methylamino]-2,6-dichlorobenzyloxy]-3-bromo-2-methylimidazo[1,2-a]pyridine hydrochloride]",98
5,"Cc1nc2c(OCc3c(Cl)ccc(N(C)C(=O)CNC(=O)Cc4ccccc4)c3Cl)cccn2c1Br [61-(13), 3-Bromo-8-[2,6-dichloro-3-[N-(phenylacetylglycyl)-N-methylamino]benzyloxy]-2-methylimidazo[1,2-a]pyridine hydrochloride]",98
6,"COCC(=O)NCC(=O)CC(=O)N(C)c1ccc(Cl)c(COc2cccn3c(Br)c(C)nc23)c1Cl [61-(16), 3-Bromo-8-[2,6-dichloro-3-[N-(methoxyacetylglycyl)acetyl-N-methylamino]benzyloxy]-2-methylimidazo[1,2-a]pyridine hydrochloride]",100
7,"CC(=O)NCC(=O)NCC(=O)N(C)c1ccc(Cl)c(COc2cccn3c(Br)c(C)nc23)c1Cl [61-(18), 8-[3-[N-(Acetylglycylglycyl)-N-methylamino]-2,6-dichlorobenzyloxy]-3-bromo-2-methylimidazo[1,2-a]pyridine hydrochloride]",97
8,"Cc1nc2c(OCc3c(Cl)ccc(N(C)C(=O)CNC(C)C)c3Cl)cccn2c1Br [61-(23), 3-Bromo-8-[2,6-dichloro-3-[N-(isopropylglycyl)-N-methylamino]benzyloxy]-2-methylimidazo[1,2-a]pyridine dihydrochloride]",100
9,"CCNC(=O)NCC(=O)N(C)c1ccc(Cl)c(COc2cccn3c(Br)c(C)nc23)c1Cl [61-(28), 3-Bromo-8-[2,6-dichloro-3-[N-(N'-ethylureidoacetyl)-N-methylamino]benzyloxy]-2-methylimidazo[1,2-a]pyridine hydrochloride]",99
10,"Cc1nc2c(OCc3c(Cl)ccc(N(C)C(=O)CNC(=O)CN(C)C)c3Cl)cccn2c1Br [61-(41), 3-Bromo-8-[2,6-dichloro-3-[N-[(N,N-dimethylglycyl)glycyl]-N-methylamino]benzyloxy]-2-methylimidazo[1,2-a]pyridine dihydrochloride]",100
11,"Cc1nc2c(OCc3c(Cl)ccc(N(C)C(=O)CNC(=S)Nc4ccccc4)c3Cl)cccn2c1Cl [Example 47, 3-Chloro-8-[2,6-dichloro-3-[N-(N'-phenylthioureidoacetyl)-N-methylamino]benzyloxy]-2-methylimidazo[1,2-a]pyridine]",100
12,"Cc1nc2c(OCc3c(Cl)ccc(N(C)C(=O)CNC(=O)[C@H]4CCCN4)c3Cl)cccn2c1Br [Example 49, 3-Bromo-8-[2,6-dichloro-3-[N-(D-prolylglycyl)-N-methylamino]benzyloxy]-2-methylimidazo[1,2-a]pyridine dihydrochloride]",100
13,"Cc1nc2c(OCc3c(Cl)ccc([N+](=O)[O-])c3Cl)cccn2c1Br [Example 60, 3-bromo-8-(2,6-dichloro-3-nitrobenzyloxy)-2-methylimidazo[1,2-a]pyridine hydrochloride]",100

# Same assay, conditions: read-out: Inhibition % of ^3H-Bradykinin binding (concentration : 1 x 10^-5M)
row,Compound,inhibition at 10 µM [%]
1,"Cc1nc2c(OCc3c(Cl)ccc(N(C)C(=O)CNC(=O)Oc4ccc([N+](=O)[O-])cc4)c3Cl)cccn2c1Br [40-(21), 3-Bromo-8-[2,6-dichloro-3-[N-(4-nitrophenoxycarbonylglycyl)-N-methylamino]benzyloxy]-2-methylimidazo[1,2-a]pyridine]",97
